Test results: patent publication US20190150455A1, “COMPOSITIONS OF SAPONINS AND PLANT EXTRACTS” (Y&B MOTHER'S CHOICE LTD., priority 2016, published 2019)

Tested on: E. coli, S. aureus, P. aeruginosa, C. albicans and A. Brasiliensis
Test: Challenge test, statements on all tested microorganisms together
Type: cell-based
Conditions: non-preserved cream
Procedure: The various lotion or cleansing formulae were contaminated by suitable microorganisms (bacteria and yeast), as described below. The so-prepared samples were incubated as described below. Using serial dilutions and plate counts, aliquots were taken during the incubation period for determining microorganism count. Tested Microorganisms: E. coli (ATCC 8739); S. aureus (ATCC 6538); P. aeruginosa (ATCC 9027); C. albicans (ATCC 10231) and A. Brasiliensis (ATCC 16404)). Bacteria, yeast, and mold suspensions were prepared according to ISO 11930; TSA culture medium for the bacteria was obtained from Hylab (Cat. No PD-087/A); PDA culture medium for A. brasiliensis was obtained from Hylab (Cat. No PD-043); SDA culture medium for C. albicans was obtained from Hylab (Cat. No PD-044); 0.1% peptone was prepared by mixing 1 g/l Peptone in sterile water. The test was performed according ISO 11930. Each sample was contaminated with microorganisms to obtain the range of 10^5-10^6 cfulml. The inoculated formulation was mixed thoroughly to ensure a homogeneous distribution of the inoculum. Samples were stored at 25° C. Each sample was sampled in intervals of 2, 7, 14, 21 and 28 days, according to the following procedure: 100 μl of the inoculated formulation was streaked on suitable agar medium. The plates were incubated at 37° C. for bacteria and 25° C. for yeast and mold. […]

## CCCCCCCC(=O)OCC(O)CO (stereo not shown) [glyceryl caprylate]
  Antimicrobial activity against the tested microorganisms, in words: improved the antimicrobial activity of the tested formulations
